# Paper PMC7093416, “Selective USP7 inhibition elicits cancer cell killing through a p53-dependent mechanism” (Scientific Reports, 2020)
# Test system: panel of 484 cancer cell lines
# Assay: PRISM cancer cell line profiling, 5 days
# Format: cell-based
# Design: AUC: unit not given beside the values
# Procedure: Cancer cell line profiling was performed using the Broad’s PRISM platform. Cell treatment and data analysis were performed as described in Yu et al[42]. Raw Luminex signal was converted to AUC values for each cell line as described. The resulting AUC profile for each compound was modeled against DepMap using the limma package in R[71]. Because hotspot mutation analysis was performed against DepMap, TP53 annotations in Fig. 6c,d are directly from DepMap.
smiles,measurement,setting,value
CN1CCN(CCC(=O)Nc2ccc3c(=O)n(CC4(O)CCN(C(=O)[C@@H](CCCNC(=O)c5ccc6c(Cl)c7c(nc6c5)CCCC7)Cc5ccccc5)CC4)cnc3c2)CC1 [XL177A],AUC,HCC1438_LUNG,0.7615
same,AUC,HCC1588_LUNG,1.23
same,AUC,HCC1806_BREAST,0.9812
same,AUC,HCC1937_BREAST,1.015
same,AUC,HCC4006_LUNG,0.9625
same,AUC,HCT15_LARGE_INTESTINE,1.19
same,AUC,HCT116_LARGE_INTESTINE,0.9421
same,AUC,HDQP1_BREAST,0.9973
same,AUC,HEC1A_ENDOMETRIUM,1.131
same,AUC,HEC1B_ENDOMETRIUM,0.9267
same,AUC,HEC6_ENDOMETRIUM,0.9564
same,AUC,HEC59_ENDOMETRIUM,1.149
same,AUC,HEC108_ENDOMETRIUM,0.8058
same,AUC,HEC151_ENDOMETRIUM,0.7769
same,AUC,HEC251_ENDOMETRIUM,0.792
same,AUC,HEC265_ENDOMETRIUM,0.8327
same,AUC,HEP3B217_LIVER,1.13
same,AUC,HEYA8_OVARY,0.9929
same,AUC,HGC27_STOMACH,1.014
same,AUC,HLF_LIVER,1.111
same,AUC,HMC18_BREAST,0.9153
same,AUC,HOS_BONE,1.0422
same,AUC,HPAC_PANCREAS,1.477
same,AUC,HS294T_SKIN,0.8762
same,AUC,HS618T_LUNG,0.9543
same,AUC,HS729_SOFT_TISSUE,0.9806
same,AUC,HS766T_PANCREAS,0.877
same,AUC,HS852T_SKIN,1.359
same,AUC,HS939T_SKIN,1.069
same,AUC,HS944T_SKIN,1.047
same,AUC,HSC2_UPPER_AERODIGESTIVE_TRACT,0.968
same,AUC,HSC3_UPPER_AERODIGESTIVE_TRACT,0.8381
same,AUC,HT29_LARGE_INTESTINE,1.3
same,AUC,HT55_LARGE_INTESTINE,1.168
same,AUC,HT144_SKIN,1.076
same,AUC,HT1080_SOFT_TISSUE,1.011
same,AUC,HT1376_URINARY_TRACT,1.127
same,AUC,HUCCT1_BILIARY_TRACT,0.9724
same,AUC,HUH6_LIVER,0.8768
same,AUC,HUH7_LIVER,1.027
same,AUC,HUH28_BILIARY_TRACT,1.165
same,AUC,HUPT3_PANCREAS,1.003
same,AUC,IALM_LUNG,0.9313
same,AUC,IGR1_SKIN,0.998
same,AUC,IGR37_SKIN,0.9905
same,AUC,IGROV1_OVARY,0.7266
same,AUC,IM95_STOMACH,0.6846
same,AUC,IPC298_SKIN,0.897
same,AUC,ISHIKAWAHERAKLIO02ER_ENDOMETRIUM,1.0984
same,AUC,ISTMES1_PLEURA,0.9912
same,AUC,ISTMES2_PLEURA,1.073
same,AUC,J82_URINARY_TRACT,1.012
same,AUC,JHH1_LIVER,0.7875
same,AUC,JHH4_LIVER,1.303
same,AUC,JHH5_LIVER,1.313
same,AUC,JHH6_LIVER,1.146
same,AUC,JHH7_LIVER,1.089
same,AUC,JHOC5_OVARY,0.9299
same,AUC,JHOM1_OVARY,1.1
same,AUC,JHOS2_OVARY,1.084
same,AUC,JHUEM2_ENDOMETRIUM,0.6526
same,AUC,JIMT1_BREAST,0.9668
same,AUC,JMSU1_URINARY_TRACT,1.405
same,AUC,K029AX_SKIN,0.9501
same,AUC,KALS1_CENTRAL_NERVOUS_SYSTEM,0.9126
same,AUC,KELLY_AUTONOMIC_GANGLIA,1.086
same,AUC,KMBC2_URINARY_TRACT,0.7761
same,AUC,KMRC1_KIDNEY,1.1591
same,AUC,KMRC3_KIDNEY,1.033
same,AUC,KMRC20_KIDNEY,1.2
same,AUC,KNS42_CENTRAL_NERVOUS_SYSTEM,1.183
same,AUC,KNS60_CENTRAL_NERVOUS_SYSTEM,1.16
same,AUC,KNS62_LUNG,0.8251
same,AUC,KNS81_CENTRAL_NERVOUS_SYSTEM,0.9475
same,AUC,KP2_PANCREAS,1.066
same,AUC,KP3_PANCREAS,1.01
same,AUC,KP4_PANCREAS,0.8954
same,AUC,KPL1_BREAST,0.9211
same,AUC,KU1919_URINARY_TRACT,0.8697
same,AUC,KYSE30_OESOPHAGUS,0.8748
same,AUC,KYSE70_OESOPHAGUS,0.8646
same,AUC,KYSE140_OESOPHAGUS,1.147
same,AUC,KYSE150_OESOPHAGUS,0.9935
same,AUC,KYSE180_OESOPHAGUS,1.01
same,AUC,KYSE270_OESOPHAGUS,0.9741
same,AUC,KYSE410_OESOPHAGUS,1.031
same,AUC,KYSE510_OESOPHAGUS,0.9351
same,AUC,KYSE520_OESOPHAGUS,0.8676
same,AUC,L33_PANCREAS,1.236
same,AUC,LC1SQSF_LUNG,1.124
same,AUC,LCLC103H_LUNG,1.104
same,AUC,LI7_LIVER,1.1644
same,AUC,LK2_LUNG,1.455
same,AUC,LMSU_STOMACH,0.9257
same,AUC,LN18_CENTRAL_NERVOUS_SYSTEM,0.8921
same,AUC,LN229_CENTRAL_NERVOUS_SYSTEM,1.185
same,AUC,LNCAPCLONEFGC_PROSTATE,0.7244
same,AUC,LOUNH91_LUNG,1.175
same,AUC,LOVO_LARGE_INTESTINE,1.153
same,AUC,LOXIMVI_SKIN,0.9286
same,AUC,LS180_LARGE_INTESTINE,0.8962
same,AUC,LS411N_LARGE_INTESTINE,1.328
same,AUC,LS513_LARGE_INTESTINE,1.158
same,AUC,LS1034_LARGE_INTESTINE,1.385
same,AUC,LU99_LUNG,0.9975
same,AUC,LUDLU1_LUNG,1.119
same,AUC,LXF289_LUNG,0.9272
same,AUC,MALME3M_SKIN,0.9568
same,AUC,MCAS_OVARY,0.987
same,AUC,MCF7_BREAST,0.9375
same,AUC,MDAMB175VII_BREAST,1.118
same,AUC,MDAMB231_BREAST,0.9911
same,AUC,MDAMB435S_SKIN,0.9274
same,AUC,MDAMB436_BREAST,0.9312
same,AUC,MDAMB468_BREAST,0.902
same,AUC,MELHO_SKIN,0.9951
same,AUC,MELJUSO_SKIN,0.9827
same,AUC,MESSA_SOFT_TISSUE,0.5444
same,AUC,MEWO_SKIN,0.9674
same,AUC,MFE280_ENDOMETRIUM,1.202
same,AUC,MFE296_ENDOMETRIUM,1.106
same,AUC,MFE319_ENDOMETRIUM,1.097
